Reference: publication PMC9974123, “Targeting prolyl-tRNA synthetase via a series of ATP-mimetics to accelerate drug discovery against toxoplasmosis” (PLOS Pathogens, 2023)
Where two headings read alike, the source gives them in different places.

Tests used:
[1] = biological target: T1, Toxoplasma gondii prolyl-tRNA synthetase (TgPRS) (Toxoplasma gondii, UniProt S8G8I1); test: co-crystal structure with L-pro; aminoacylation inhibition (malachite green); thermal shift (ΔTm […] °C with L-Pro); format: biochemical
T1 construct: gene TGME49_219850; length 334–830

Toxoplasma gondii WT = test system: T2, Toxoplasma gondii WT; test: microbe, parasite or virus in culture; set-up: species or system human foreskin fibroblasts (HFF); T. gondii RH NLuc tachyzoite growth in HFF monolayer, Nano-Glo luciferase luminescence; details: Fibroblast, 48 h
T2 construct: RH
Protocol: Compounds were synthesized (HPLC purity > 95%) according to reported procedures. A confluent Human Foreskin Fibroblast (HFF) monolayer was infected with 2,000 tachyzoites of RH parasites expressing the NLuc luciferase (RH NLuc) for 2 h to allow parasite invasion. Each compound was added to the culture medium, and infected cells were incubated at 37° C for 48 h. To measure luminescence, the medium was replaced by 50 μL of PBS, and the luminescence assay was performed using Nano-Glo Luciferase Assay System according to the manufacturer’s instructions (Promega). After 3 min of incubation, the luminescence was measured using the CLARIOstar (BMG Labtech) plate reader. EC50 was determined using a non-linear regression analysis of normalized data assuming a sigmoidal dose-response. […] Statistical analyses were performed using a one-way ANOVA test with GraphPad software.  Fig 4 Activity of five compounds on PRS edited parasites. A-D) EC50 values for L95, L96, L97, and L36 were determined for wild-type (WT) and the engineered PRS mutant strains (T477A and T592S). Data are mean value ±SD from at least 2 independent biological replicates, each with 3 technical replicates. Associated dose-response curves are shown in S2C Fig. Higher EC50 values for the mutants confirm that PRS is the molecular target of all five compounds tested. The P-values were calculated using one-way ANOVA analysis and multiple-comparison post hoc tests. n.s., not significant. Associated dose-response curves are shown in S1 Fig. E) The EC50 (nM) values for the engineered PRS mutant strains (T477A and T592S) are shown in comparison with the TgPRS wild type. F) The catalytic cavity of TgPRS is shown with two inhibitors along with their electron densities–HFG (green) and L95 (red)–bound to the tRNA and L-pro binding sites and the ATP binding site respectively. The ribbon of PRS is in cyan whilst the resistance-conferring mutating residues T477 and T592 to L35 are shown in purple. (n.d.–not detected).

[2] = biological target: T1, Toxoplasma gondii prolyl-tRNA synthetase (TgPRS); test: co-crystal structure with L-pro; aminoacylation inhibition (malachite green); thermal shift (ΔTm […] °C with L-Pro); format: biochemical; remark: listed apart in the source
[3] = biological target: T1, Toxoplasma gondii prolyl-tRNA synthetase (TgPRS); test: as above; format: biochemical; remark: listed apart in the source
[4] = biological target: T3, Homo sapiens prolyl-tRNA synthetase (HsPRS) (Homo sapiens, UniProt P07814); test: co-crystal structure with L-pro; aminoacylation inhibition; thermal shift (ΔTm […] °C with L-pro); format: binding
T3 construct: gene EPRS1; length 1015–1506
T3 sequence (P07814 1015-1506): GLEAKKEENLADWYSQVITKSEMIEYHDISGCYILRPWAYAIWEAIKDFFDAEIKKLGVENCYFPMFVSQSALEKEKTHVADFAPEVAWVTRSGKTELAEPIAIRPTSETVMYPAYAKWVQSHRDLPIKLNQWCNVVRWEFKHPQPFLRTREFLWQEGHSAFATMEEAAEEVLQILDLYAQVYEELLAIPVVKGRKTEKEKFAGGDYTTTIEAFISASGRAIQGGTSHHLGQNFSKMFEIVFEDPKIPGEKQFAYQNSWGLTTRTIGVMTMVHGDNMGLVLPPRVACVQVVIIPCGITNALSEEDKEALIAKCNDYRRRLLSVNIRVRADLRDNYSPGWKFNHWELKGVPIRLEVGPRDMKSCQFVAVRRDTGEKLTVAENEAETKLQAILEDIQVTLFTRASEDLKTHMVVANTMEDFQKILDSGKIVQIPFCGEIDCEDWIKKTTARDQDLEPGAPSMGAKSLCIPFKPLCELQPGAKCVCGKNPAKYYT

[5] = biological target: T3, Homo sapiens prolyl-tRNA synthetase (HsPRS); test: as above; format: binding; remark: listed apart in the source
[6] = biological target: T1, Toxoplasma gondii prolyl-tRNA synthetase (TgPRS); test: co-crystal structure with L-pro; aminoacylation inhibition (malachite green); thermal shift (ΔTm […] °C with L-Pro); format: biochemical; remark: listed apart in the source
[7] = biological target: T1, Toxoplasma gondii prolyl-tRNA synthetase (TgPRS); test: as above; format: biochemical; remark: listed apart in the source
[8] = biological target: T3, Homo sapiens prolyl-tRNA synthetase (HsPRS); test: co-crystal structure with L-pro; aminoacylation inhibition; thermal shift (ΔTm […] °C with L-pro); format: binding; remark: listed apart in the source

T1 sequence (S8G8I1 entry or part of it): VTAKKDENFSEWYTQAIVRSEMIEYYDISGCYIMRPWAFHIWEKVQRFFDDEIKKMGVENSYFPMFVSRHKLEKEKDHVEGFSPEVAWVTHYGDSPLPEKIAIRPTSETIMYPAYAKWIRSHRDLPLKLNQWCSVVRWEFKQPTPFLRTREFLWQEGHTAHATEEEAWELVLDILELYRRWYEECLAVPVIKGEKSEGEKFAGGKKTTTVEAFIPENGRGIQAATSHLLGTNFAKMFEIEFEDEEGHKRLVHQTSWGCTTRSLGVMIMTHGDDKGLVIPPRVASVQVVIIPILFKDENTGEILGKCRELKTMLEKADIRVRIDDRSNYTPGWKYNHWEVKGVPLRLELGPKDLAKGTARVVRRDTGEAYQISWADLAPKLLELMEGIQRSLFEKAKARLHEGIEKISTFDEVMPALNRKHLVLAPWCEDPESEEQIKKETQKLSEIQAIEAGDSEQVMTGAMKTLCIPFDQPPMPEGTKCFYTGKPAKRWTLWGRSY

Cc1cc(N2CC[C@@](C#N)(C3(C)CC3)C2=O)cc(C(=O)NCc2cc(F)cc(-c3cnn(C)c3)c2)n1 [L35]
IC50 [1]: 9.2 nM | EC50 (Toxoplasma gondii WT; read-out: EC50 Treated-L35 (nM)): 31 ± 12 nM

Cc1cc(N2CC[C@](C#N)(C3(C)CC3)C2=O)cc(C(=O)NCc2cc(F)cc(-c3cnn(C)c3)c2)n1 [L36]
IC50 [2]: 2410 nM | EC50 (Toxoplasma gondii WT; read-out: EC50 Treated-L36 (nM)): 5800 ± 350 nM

Cc1cc(N2CC[C@@](C#N)(C3CC3)C2=O)cc(NC(=O)Cc2ccccc2)n1 [L95]
IC50 [3]: 140 nM | co-crystal structure with L-pro; aminoacylation inhibition; thermal shift (ΔTm 1) [4]: The complex structure of HsPRS with L95, L96, and L97 was determined | EC50 (Toxoplasma gondii WT; read-out: EC50 Treated-L95 (nM)): 277 ± 6 nM

COc1cncc(-c2cc(F)cc(CNC(=O)c3cc(N4CC[C@@](C#N)(C5CC5)C4=O)cc(C)n3)c2)c1 [L96]
co-crystal structure with L-pro; aminoacylation inhibition; thermal shift (ΔTm 2) [5]: The complex structure of HsPRS with L95, L96, and L97 was determined | IC50 [6]: 79.7 nM | EC50 (Toxoplasma gondii WT; read-out: EC50 Treated-L96 (nM)): 106 ± 36 nM

Cc1cc(N2CCC(CO)(C3CC3)C2=O)cc(C(=O)NCc2cc(F)cc(-c3cnn(C)c3)c2)n1 (centres unmarked) [L97]
IC50 [7]: 50 nM | co-crystal structure with L-pro; aminoacylation inhibition; thermal shift (ΔTm 1) [8]: The complex structure of HsPRS with L95, L96, and L97 was determined | EC50 (Toxoplasma gondii WT; read-out: EC50 Treated-L97 (nM)): 544 ± 130 nM

CCc1nc(N)nc(N)c1-c1ccc(Cl)cc1 [PYR, pyrimethamine]
EC50 (Toxoplasma gondii WT; read-out: EC50 Treated-PYR (nM)): 174 ± 60 nM
